Test system: direct pancreatic cancer xenografts (fine needle aspiration cells)
Assay: Ex vivo perturbability assay, low-density microarray RT-PCR
Format: cell-based
Parameters: key to RRM1 gene expression / NFKB1 gene expression / BNIP3L gene expression / VHL gene expression / DCK gene expression / HIF1B gene expression / IGF1R gene expression / MAPK1 gene expression / MAP2K2 gene expression / JUN gene expression / IHH gene expression: % of untreated control (treated sample normalized to untreated)
Conditions: treated normalized to untreated control
From the text: Direct pancreatic cancer derived xenografts: Resected pancreatic adenocarcinomas are routinely implanted in nude mice at the Johns Hopkins Medical Institutions as a method to obtain enriched populations of neoplastic cells under an IRB-approved protocol from residual pancreatic cancer tumors. Tumor specimens from Whipple resection specimens were divided into 2-3 mm^3 pieces in antibiotic-containing RPMI media. Pieces of non-necrotic tissue were selected and immersed in Matrigel. Under anesthesia with isofluorane, tumors were implanted into five-to-six week-old female athymic (nu/nu) mice purchased from Harlan (Harlan Laboratories, Washington, D.C.). This research protocol was approved by the Johns Hopkins University Animal Use and Care Committee arid animals were maintained in accordance to guidelines of the American Association of Laboratory Animal Care. Tumors were propagated to subsequent cohorts of mice until a sufficient number were available for drug testing.
Fine needle aspiration (FNA): FNAs on mice were performed according to standard cytopathologic practice using 10 cc syringes and 25-gauge needles. The procedure was performed under inhaled general anesthesia with isofluorane. During each FNA procedure the first pass was smeared onto glass slides and used for morphologic analysis and quality control, (DiffQuik™ and Papanicoloau), and the second through sixth passes were used to acquire viable cells.
Ex vivo assay: FNA passes used to acquire viable cells were immediately transferred into 10 ml sterile prewarmed complete RPMI-1640 culture medium containing 10% FBS, penicillin (200 ug/ml), and streptomycin (200 ug/ml). Equivalent aliquots of cells were seeded in two wells of a 6-well polypropylene microplate. […] Following treatment, non-adherent and adherent cells (collected by scraping) were pooled together in a 1.5 mL microcentrifuge tube and centrifuged at 500 g for 5 mm at 4° C. After washing with PBS, cells were lysed in 100 μL of ice-cold RLT.
RNA extraction and cDNA generation: Total RNA was extracted from cells using the RNeasy™ Mini Kit (Qiagen, Valencia, Calif.) following the manufacturer's instructions. cDNA was synthesized using iScript cDNA synthesis kit (Bio-Rad) following the manufacturer's instructions.
Low-density micro arrays (LDMA): The samples were run in a customized assay with a 384-well format (ABI, Foster City, Calif.), where the expression of 45 to 381 relevant genes can be quantitatively tested. For this example, the array was designed with 8 replicated sections containing 48 wells, with primers of one gene per well: 3 housekeeping genes (HK: UBC, HPRT, SDHA), and 45 genes of interest. 50 μL of cDNA plus 50 μL of ABI mastermix were loaded onto each of two contiguous lanes to have duplicated readouts of every sample, and were run by real-time reverse transcriptase PCR (RT-PCR). The amount of change in the target genes was calculated by comparing the threshold cycle (CT) of each gene to the geometric mean of the CTs of the HK genes. Relative expression of the target genes was estimated using the formula: relative expression=2−^ΔCT, where ΔCT=CT (target gene)−CT (average of the 3 HK genes). The experiment was run in duplicate and mean values are analyzed.
Data analysis: The expression level of each gene in the treated sample was normalized to that of the untreated control. A significant change was defined when the gene expression either increases two-fold or more (>200%), or decreases to half or more (<50%). The rest is considered uninformative.

Nc1ccn([C@@H]2O[C@H](CO)[C@@H](O)C2(F)F)c(=O)n1 [gemcitabine]
AXIN2 gene expression (case #6): 517 | BAX gene expression (case #6): 110 | BNIP3L gene expression (case #6): 105 | BRAF gene expression (case #6): 88 | BRCA1 gene expression (case #6): 195 | CCND1 gene expression (case #6): 85 | CXCR4 gene expression (case #6): 0 | CyclinB1 gene expression (case #6): 84 | DCK gene expression (case #6): 91 | EGFR gene expression (case #6): 74 | ERCC1 gene expression (case #6): 150 | FOS gene expression (case #6): 106 | GADD45A gene expression (case #6): 75 | GLI2 gene expression (case #6): 85 | HIF1A gene expression (case #6): 102 | HIF1B gene expression (case #6): 65 | IGF1R gene expression (case #6): 82 | IGFBP3 gene expression (case #6): 34 | IHH gene expression (case #6): 122 | MAP2K2 gene expression (case #6): 98 | MAPK1 gene expression (case #6): 90 | MAPK3 gene expression (case #6): 75 | MDM2 gene expression (case #6): 81 | MSLN gene expression (case #6): 101 | NFKB1 gene expression (case #6): 83 | NOTCH1 gene expression (case #6): 60 | NOTCH2 gene expression (case #6): 79 | PLK1 gene expression (case #6): 31 | PSCA gene expression (case #6): 132 | PTCH gene expression (case #6): 153 | SHH gene expression (case #6): 116 | Survivin gene expression (case #6): 145 | TGFA gene expression (case #6): 101 | VEGF gene expression (case #6): 91 | VHL gene expression (case #6): 111 | p21 gene expression (case #6): 122 | AXIN2 gene expression (case #7): 41 | BAX gene expression (case #7): 100 | BNIP3L gene expression (case #7): 100 | BRAF gene expression (case #7): 40 | BRCA1 gene expression (case #7): 89 | CCND1 gene expression (case #7): 127 | CXCR4 gene expression (case #7): 5 | CyclinB1 gene expression (case #7): 16 | DCK gene expression (case #7): 102 | EGFR gene expression (case #7): 151 | ERCC1 gene expression (case #7): 153 | FOS gene expression (case #7): 139 | GADD45A gene expression (case #7): 96 | GLI2 gene expression (case #7): 73 | HIF1A gene expression (case #7): 115 | HIF1B gene expression (case #7): 102 | IGF1R gene expression (case #7): 28 | IGFBP3 gene expression (case #7): 78 | IHH gene expression (case #7): 81 | JUN gene expression (case #7): 80 | MAP2K2 gene expression (case #7): 131 | MAPK1 gene expression (case #7): 93 | MAPK3 gene expression (case #7): 167 | MDM2 gene expression (case #7): 180 | MSLN gene expression (case #7): 117 | NOTCH1 gene expression (case #7): 104 | NOTCH2 gene expression (case #7): 112 | PLK1 gene expression (case #7): 98 | PSCA gene expression (case #7): 91 | PTCH gene expression (case #7): 63 | RRM1 gene expression (case #7): 129 | SHH gene expression (case #7): 57 | Survivin gene expression (case #7): 85 | TGFA gene expression (case #7): 131 | VEGF gene expression (case #7): 115 | VHL gene expression (case #7): 80 | p21 gene expression (case #7): 134 | AXIN2 gene expression (case #8): 81 | BAX gene expression (case #8): 91 | BNIP3L gene expression (case #8): 106 | BRAF gene expression (case #8): 122 | BRCA1 gene expression (case #8): 59 | CCND1 gene expression (case #8): 107 | CXCR4 gene expression (case #8): 342 | CyclinB1 gene expression (case #8): 140 | DCK gene expression (case #8): 99 | EGFR gene expression (case #8): 91 | ERCC1 gene expression (case #8): 98 | FOS gene expression (case #8): 113 | GADD45A gene expression (case #8): 147 | GLI2 gene expression (case #8): 531 | HIF1A gene expression (case #8): 113 | HIF1B gene expression (case #8): 566 | IGF1R gene expression (case #8): 101 | IGFBP3 gene expression (case #8): 83 | IHH gene expression (case #8): 137 | MAP2K2 gene expression (case #8): 86 | MAPK1 gene expression (case #8): 78 | MAPK3 gene expression (case #8): 90 | MDM2 gene expression (case #8): 65 | MSLN gene expression (case #8): 98 | NOTCH1 gene expression (case #8): 118 | NOTCH2 gene expression (case #8): 122 | PLK1 gene expression (case #8): 90 | PSCA gene expression (case #8): 101 | PTCH gene expression (case #8): 203 | RRM1 gene expression (case #8): 104 | SHH gene expression (case #8): 77 | Survivin gene expression (case #8): 74 | TGFA gene expression (case #8): 107 | VEGF gene expression (case #8): 105 | VHL gene expression (case #8): 101 | p21 gene expression (case #8): 100 | AXIN2 gene expression (case #9): 106 | BAX gene expression (case #9): 92 | BNIP3L gene expression (case #9): 95 | BRAF gene expression (case #9): 93 | BRCA1 gene expression (case #9): 161 | CCND1 gene expression (case #9): 97 | CXCR4 gene expression (case #9): 649 | CyclinB1 gene expression (case #9): 115 | DCK gene expression (case #9): 117 | EGFR gene expression (case #9): 85 | ERCC1 gene expression (case #9): 91 | FOS gene expression (case #9): 83 | GADD45A gene expression (case #9): 74 | GLI2 gene expression (case #9): 99 | HIF1A gene expression (case #9): 100 | HIF1B gene expression (case #9): 107 | IGF1R gene expression (case #9): 53 | IGFBP3 gene expression (case #9): 42 | IHH gene expression (case #9): 99 | JUN gene expression (case #9): 92 | MAP2K2 gene expression (case #9): 90 | MAPK1 gene expression (case #9): 99 | MAPK3 gene expression (case #9): 106 | MDM2 gene expression (case #9): 92 | MSLN gene expression (case #9): 107 | NOTCH1 gene expression (case #9): 96 | NOTCH2 gene expression (case #9): 101 | PLK1 gene expression (case #9): 111 | PSCA gene expression (case #9): 94 | PTCH gene expression (case #9): 78 | RRM1 gene expression (case #9): 73 | SHH gene expression (case #9): 47 | Survivin gene expression (case #9): 104 | TGFA gene expression (case #9): 103 | VEGF gene expression (case #9): 87 | VHL gene expression (case #9): 110 | p21 gene expression (case #9): 83 | AXIN2 gene expression (case #10): 202 | BAX gene expression (case #10): 91 | BNIP3L gene expression (case #10): 97 | BRAF gene expression (case #10): 65 | BRCA1 gene expression (case #10): 62 | CCND1 gene expression (case #10): 69 | CXCR4 gene expression (case #10): 53 | CyclinB1 gene expression (case #10): 89 | DCK gene expression (case #10): 91 | EGFR gene expression (case #10): 50 | ERCC1 gene expression (case #10): 91 | FOS gene expression (case #10): 96 | GADD45A gene expression (case #10): 106 | GLI2 gene expression (case #10): 30 | HIF1A gene expression (case #10): 90 | HIF1B gene expression (case #10): 76 | IGF1R gene expression (case #10): 66 | IGFBP3 gene expression (case #10): 96 | IHH gene expression (case #10): 93 | JUN gene expression (case #10): 82 | MAP2K2 gene expression (case #10): 89 | MAPK1 gene expression (case #10): 79 | MAPK3 gene expression (case #10): 73 | MDM2 gene expression (case #10): 86 | MSLN gene expression (case #10): 90 | NFKB1 gene expression (case #10): 78 | NOTCH1 gene expression (case #10): 70 | NOTCH2 gene expression (case #10): 101 | PLK1 gene expression (case #10): 68 | PSCA gene expression (case #10): 108 | PTCH gene expression (case #10): 33 | RRM1 gene expression (case #10): 92 | SHH gene expression (case #10): 70 | Survivin gene expression (case #10): 64 | TGFA gene expression (case #10): 141 | VEGF gene expression (case #10): 97 | VHL gene expression (case #10): 74 | p21 gene expression (case #10): 119
